Source: publication PMC7044277 (Nature Communications, 2020)
Values joined by “and” are separate entries in the source; they are usually repeats but may differ in a detail not shown here. Equal entries are not always repeated.

Experiments:
Format in all cases: cell-based
5HT2C = biological target: T1, 5HT2C (Homo sapiens, UniProt P28335); experiment: β-arrestin2 recruitment (Tango); details: Fig_S10m; for β-arrestin2 recruitment response in presence of serotonin (replicate values): +10μM serotonin; for β-arrestin2 recruitment response (dose-response source data, replicate values): drug alone
T1 sequence (P28335 33-458): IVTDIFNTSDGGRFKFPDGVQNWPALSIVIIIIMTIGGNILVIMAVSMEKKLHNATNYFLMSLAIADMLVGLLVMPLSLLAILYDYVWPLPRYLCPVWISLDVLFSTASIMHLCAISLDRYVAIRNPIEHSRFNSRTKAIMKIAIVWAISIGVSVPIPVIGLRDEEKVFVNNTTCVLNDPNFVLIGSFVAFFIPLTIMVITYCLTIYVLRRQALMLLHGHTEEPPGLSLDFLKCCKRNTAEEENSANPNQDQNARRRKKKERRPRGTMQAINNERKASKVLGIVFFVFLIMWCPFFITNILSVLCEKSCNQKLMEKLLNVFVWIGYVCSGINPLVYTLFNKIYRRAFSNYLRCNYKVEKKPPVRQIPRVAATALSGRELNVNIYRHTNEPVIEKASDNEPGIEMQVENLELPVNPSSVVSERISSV

DRD2 S1935.42G = biological target: T2, DRD2 S1935.42G (Homo sapiens, UniProt P14416, S193G); experiment: Gαi/o-mediated cAMP inhibition (GloSensor), mutant; details: DRD2 Ser5.42Gly; G-protein assay
T2 construct: expressed in transfected cells; host or cells: HEK293T (ATCC CRL-11268)

5HT1D = 5HT1D (Homo sapiens, UniProt P28221); experiment: β-arrestin2 recruitment (Tango); details: agonist activity only at high concentrations
DRD2 S1975.46G = biological target: T3, DRD2 S1975.46G (Homo sapiens, UniProt P14416, S197G); experiment: Gαi/o-mediated cAMP inhibition (GloSensor), mutant; details: DRD2 Ser197^5.46Gly; G-protein assay
T3 construct: expressed in transfected cells; host or cells: HEK293T (ATCC CRL-11268)
T3 sequence (P14416 whole entry S197G): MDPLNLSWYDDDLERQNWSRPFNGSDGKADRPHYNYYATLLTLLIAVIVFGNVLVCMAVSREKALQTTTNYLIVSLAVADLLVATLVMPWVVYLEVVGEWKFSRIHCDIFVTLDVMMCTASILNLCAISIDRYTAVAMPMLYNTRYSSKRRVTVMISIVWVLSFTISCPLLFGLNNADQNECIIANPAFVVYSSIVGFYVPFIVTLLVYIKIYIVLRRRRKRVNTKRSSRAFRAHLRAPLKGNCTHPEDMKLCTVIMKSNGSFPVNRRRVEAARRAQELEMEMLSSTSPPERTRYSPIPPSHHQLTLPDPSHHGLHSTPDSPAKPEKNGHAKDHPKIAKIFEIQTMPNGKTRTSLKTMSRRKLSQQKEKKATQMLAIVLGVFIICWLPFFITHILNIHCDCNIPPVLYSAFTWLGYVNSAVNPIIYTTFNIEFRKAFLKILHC

T2 sequence (P14416 whole entry S193G): as the sequence (P14416 whole entry S197G) above, with S193G, G197S counted along it
Sequence of 5HT1D (P28221 whole entry): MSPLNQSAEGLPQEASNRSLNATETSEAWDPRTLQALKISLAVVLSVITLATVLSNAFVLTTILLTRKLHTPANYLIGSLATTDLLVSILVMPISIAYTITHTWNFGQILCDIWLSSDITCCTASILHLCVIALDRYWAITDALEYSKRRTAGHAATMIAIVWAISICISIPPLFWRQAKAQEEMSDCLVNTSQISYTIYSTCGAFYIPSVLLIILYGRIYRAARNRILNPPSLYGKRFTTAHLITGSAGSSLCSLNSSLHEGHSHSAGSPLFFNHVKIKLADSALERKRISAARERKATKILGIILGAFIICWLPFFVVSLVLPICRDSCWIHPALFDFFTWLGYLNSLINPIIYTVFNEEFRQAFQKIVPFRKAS

Row | SMILES | β-arrestin2 recruitment response in presence of serotonin (replicate values) (5HT2C; Log[Drug] -5) | β-arrestin2 recruitment response (dose-response source data, replicate values) (5HT2C; Log[Drug] -5) | β-arrestin2 recruitment response in presence of serotonin (replicate values) (5HT2C; Log[Drug] -5.52) | β-arrestin2 recruitment response (dose-response source data, replicate values) (5HT2C; Log[Drug] -5.52) | β-arrestin2 recruitment response in presence of serotonin (replicate values) (5HT2C; Log[Drug] -6) | β-arrestin2 recruitment response (dose-response source data, replicate values) (5HT2C; Log[Drug] -6) | β-arrestin2 recruitment response in presence of serotonin (replicate values) (5HT2C; Log[Drug] -6.52) | β-arrestin2 recruitment response (dose-response source data, replicate values) (5HT2C; Log[Drug] -6.52) | β-arrestin2 recruitment response in presence of serotonin (replicate values) (5HT2C; Log[Drug] -7) | β-arrestin2 recruitment response (dose-response source data, replicate values) (5HT2C; Log[Drug] -7) | β-arrestin2 recruitment response in presence of serotonin (replicate values) (5HT2C; Log[Drug] -7.52) | β-arrestin2 recruitment response (dose-response source data, replicate values) (5HT2C; Log[Drug] -7.52) | β-arrestin2 recruitment response in presence of serotonin (replicate values) (5HT2C; Log[Drug] -8) | β-arrestin2 recruitment response (dose-response source data, replicate values) (5HT2C; Log[Drug] -8) | β-arrestin2 recruitment response in presence of serotonin (replicate values) (5HT2C; Log[Drug] -8.52) | β-arrestin2 recruitment response (dose-response source data, replicate values) (5HT2C; Log[Drug] -8.52) | β-arrestin2 recruitment response in presence of serotonin (replicate values) (5HT2C; Log[Drug] -9) | β-arrestin2 recruitment response (dose-response source data, replicate values) (5HT2C; Log[Drug] -9) | β-arrestin2 recruitment response in presence of serotonin (replicate values) (5HT2C; Log[Drug] -9.52) | β-arrestin2 recruitment response (dose-response source data, replicate values) (5HT2C; Log[Drug] -9.52) | further results
1 | CCOc1cccc2cc([C@@H](C)NCC3(O)CCCCC3)oc12 [O4RE6] | 58.3147 and 46.4286 and 67.806 and 58.4132 and 79.4697 and 68.0017 and 93.0961 and 72.2806 and 97.8926 | 0.7157 and -0.5401 and -1.168 and 2.766 and 0.7235 and 1.739 and 11.316 and 1.077 and 3.549 | 54.8113 and 63.0121 and 49.2529 and 68.8758 and 64.9488 and 66.315 and 83.0753 and 67.6275 and 72.9664 | 1.749 and 2.795 and -1.663 and 3.765 and 1.711 and -0.08172 and 1.356 and 7.494 and -2.02 | 55.8065 and 61.1873 and 58.6737 and 61.6241 and 75.6253 and 78.232 and 62.8429 and 85.8382 and 64.0091 | 3.06 and -0.5319 and 0.7534 and 2.096 and -0.5619 and -0.6198 and -1.437 and 2.573 and 0.749 | 70.8253 and 57.3668 and 57.1998 and 54.2043 and 49.8953 and 65.9707 and 67.8605 and 93.5331 and 78.9014 | -0.8494 and -0.7143 and 0.1419 and 1.691 and -0.2222 and -0.8824 and 6.685 and 2.505 and 2.238 | 78.7809 and 65.1211 and 66.7181 and 78.276 and 64.6889 and 65.4492 and 69.2492 and 67.696 and 63.7064 | -1.487 and -0.5714 and -1.709 and 1.211 and 0.5059 and 0.1139 and 0.4054 and 1.8599 and -0.4067 | 60.5159 and 63.0454 and 62.4237 and 65.5364 and 59.1349 and 50.606 and 95.9761 and 69.8099 and 82.5107 | 4.965 and 0.04923 and -3.23 and 2.115 and 1.39 and -0.6014 and 1.1728 and 0.6792 and -0.974 | 71.3267 and 75.4455 and 66.4208 and 75.6262 and 64.4484 and 59.5931 and 70.3904 and 75.8595 and 73.1664 | 1.2751 and -0.6351 and 2.803 and -0.01928 and -0.2938 and -0.4398 and 3.201 and 7.224 and -1.315 | 58.0598 and 61.1071 and 60.9165 and 75.2534 and 73.2353 and 72.7725 and 80.2506 and 68.3081 and 73.8075 | 1.412 and -1.374 and -2.167 and -0.9173 and -0.6234 and -0.001836 and -1.0517 and 2.438 and -0.7292 | 62.3446 and 66.0878 and 69.0787 and 68.4846 and 71.5679 and 75.9558 and 57.0421 and 71.8594 and 68.3133 | 8.947 and 0.2944 and -1.358 and 0.06794 and 1.215 and 1.023 and 1.659 and -1.676 and 1.911 | 55.4527 and 57.9556 and 67.8156 and 72.3217 and 60.5213 and 59.5912 and 64.5922 and 60.3604 and 70.7827 | 0.7577 and 0.9406 and -1.056 and 0.774 and -0.8934 and -0.3755 and 4.117 and -0.7424 and 3.815 | agonism after serine to glycine substitution (DRD2 S1935.42G): impaired; concentration at which the receptor is activated (5HT1D): over 1 μM; agonism after serine to glycine substitution (DRD2 S1975.46G): impaired
2 | CCOc1cccc2cc([C@H](C)NCC3(O)CCCCC3)oc12 [O4SE6] | 45.7461 and 51.1482 and 53.4841 and 61.6893 and 54.4017 and 57.753 and 67.2866 and 83.7427 and 85.1445 | -3.262 and -0.5555 and 0.5642 and 1.204 and -0.4664 and 1.061 and -2.805 and 1.039 and 3.566 | 76.8132 and 54.1781 and 71.9421 and 67.2323 and 56.1903 and 49.3738 and 64.9568 and 69.9468 and 71.0617 | -3.477 and -1.313 and -1.505 and -0.3021 and 0.7731 and -0.1754 and 1.049 and -1.9165 and -0.666 | 57.6708 and 60.6404 and 63.9932 and 75.4508 and 75.7722 and 57.215 and 86.3739 and 65.9717 and 77.801 | 0.1892 and -1.167 and -2.9638 and 0.5481 and 0.639 and 4.5826 and 1.774 and -1.813 and -1.0517 | 49.4392 and 65.2785 and 58.4136 and 69.39 and 55.9424 and 71.2915 and 76.7849 and 85.9817 and 94.9705 | 3.199 and -0.222 and 0.3914 and 1.323 and 0.05601 and 0.9925 and -1.994 and 1.303 and -2.122 | 67.4184 and 56.2577 and 61.082 and 74.1195 and 66.0313 and 86.1338 and 77.8195 and 67.5788 and 79.0331 | -0.4648 and -1.599 and 4.168 and 0.2351 and 1.745 and 2.334 and 14.5501 and 3.184 and 0.1487 | 57.9508 and 62.7389 and 68.9932 and 62.9857 and 78.9582 and 61.3863 and 70.1719 and 83.8296 and 68.1225 | -1.179 and -0.8967 and -0.04778 and 2.819 and 2.117 and -0.4591 and 1.974 and -0.9095 and 6.65 | 70.2712 and 69.291 and 73.2872 and 71.712 and 66.0148 and 66.2452 and 79.2674 and 70.1943 and 78.2394 | -1.7418 and -1.636 and 0.2046 and 0.909 and -0.4958 and 0.1891 and 1.914 and -0.383 and 4.332 | 72.9942 and 69.4566 and 60.9768 and 61.1778 and 82.5318 and 58.5381 and 71.529 and 76.0793 and 77.135 | -0.5405 and -0.709 and 2.709 and 0.684 and 1.936 and 3.627 and 2.573 and 6.06 and -0.7082 | 65.7886 and 59.3306 and 51.1636 and 117.587 and 77.0604 and 77.3487 and 69.8244 and 87.7165 and 82.2092 | -2.125 and 1.403 and -1.228 and 0.9062 and -0.6032 and 0.5546 and 2.207 and 4.8202 and 4.806 | 71.3301 and 78.8962 and 71.9628 and 82.1452 and 81.8826 and 58.8025 and 76.3992 and 91.8022 and 69.3558 | -0.7505 and -1.198 and -1.073 and 2.378 and 0.7896 and 2.704 and -0.6423 and 0.9477 and 0.7345 | agonism after serine to glycine substitution (DRD2 S1935.42G): impaired; concentration at which the receptor is activated (5HT1D): over 1 μM; agonism after serine to glycine substitution (DRD2 S1975.46G): impaired
